Patent US11767303B2, “Compounds and methods for inhibiting viral replication and methods of treating and preventing flaviviral infections” (priority 2020, dated 2023)

Columns and labels:
[1] = tested on: 3D organoids; test: Toxic effect on 3D organoids; format: cell-based, human; conditions: 1.5 μM
Text: Culturing of human iPSCs. Human iPSC F11350.1 culture was maintained in feed-free conditions using mTeSR1 medium (StemCell Technologies #85851) with 5× supplement (StemCell Technologies #85852). Cells were maintained on six-well plates coated with human embryonic stem cell-qualified Matrigel at a 1:60 dilution (Corning Catalog #354277) and passaged with ReLeSR (StemCell Technologies #05872). Cortical 3D organoids were generated based on the protocol described by Yoon et al. Yoon et al., “Reliability of Human Cortical Organoid Generation,” Nat. Methods. […] Briefly, iPSCs were dissociated with accutase (ThermoFisher #A1110501) and then plated at a density of 3×10^6 cells per well in AggreWell 800 24-well plate (StemCell Technologies #34811) in Essential 8™ medium (ThermoFisher #A1517001) supplemented with 10 μM rock inhibitor (Tocris #Y27632). The plate was centrifuged at 100×g for 3 min and incubated at 37° C. overnight. […]
To evaluate if JMX0207 protects organoids from ZIKV infections, a full-length infectious ZIKV clone expressing Venus fluorescent protein (ZIKV-Venus) was first generated. […] ZIKV infection was quantified by a plaque forming unit (PFU) assay at 5 dpi and by fluorescence imaging at 7 dpi, respectively.

[2] = tested on: ZIKV; test: ZIKV inhibition in human neural progenitor cells (IFA, qRT-PCR); format: cell-based, Zika virus; conditions: HNPC
Text: Viral Titer Reduction Assay. A viral titer reduction assay was used to determine the compounds' effect on DENV2 and ZIKV strains, as described previously. Li et al., “Existing Drugs as Broad-Spectrum and Potent Inhibitors for Zika Virus by Targeting NS2B-NS3 Interaction,” Cell Res. 27:1046-1064 (2017) and Li et al., “Erythrosin B is a Potent and Broad-Spectrum Orthosteric Inhibitor of the Flavivirus NS2B-NS3 Protease,” Antiviral Res. 150:217-225 (2018), which are hereby incorporated by reference in their entirety. Human A549 lung carcinoma cells and human primary neural progenitor cells were used, as described previously. Li et al., “Erythrosin B is a Potent and Broad-Spectrum Orthosteric Inhibitor of the Flavivirus NS2B-NS3 Protease,” Antiviral Res. 150:217-225 (2018); Brecher et al., “A Conformational Switch High-Throughput Screening Assay and Allosteric Inhibition of the Flavivirus NS2B-NS3 Protease,” PLoS Pathog. 13:e1006411 (2017), which are hereby incorporated by reference in their entirety. All experiments were performed in triplicates.
Immunofluorescence Assay. The immunofluorescence assay was performed using ZIKV-infected cells treated with DMSO or JMX0207, as described previously. […]
Quantitative qRT-PCR. Quantitative qRT-PCR was performed as described previously. […] The 2-ΔΔCT (“delta-delta Ct”) method was used to quantify samples. […]

[3] = tested on: ZIKV; test: qRT-PCR of viral RNA from ZIKV-infected A549 cells; format: cell-based, Zika virus
Procedure: Quantitative qRT-PCR. Quantitative qRT-PCR was performed as described previously. Li et al., “Existing Drugs as Broad-Spectrum and Potent Inhibitors for Zika Virus by Targeting NS2B-NS3 Interaction,” Cell Res. 27:1046-1064 (2017); Li et al., “Erythrosin B is a Potent and Broad-Spectrum Orthosteric Inhibitor of the Flavivirus NS2B-NS3 Protease,” Antiviral Res. 150:217-225 (2018), which are hereby incorporated in their entirety. ZIKV primers […] (SEQ ID NO: 12) and […] (SEQ ID NO: 13) with ZIKV probe Cy5-[…]/TAO/[…]-IAbRQSp (SEQ ID NO: 14) were used. The 2-ΔΔCT (“delta-delta Ct”) method was used to quantify samples. All experiments were performed in triplicates.

[4] = LogP
[5] = target: T1, viral NS3 protease (Dengue virus type 2, UniProt P29990); test: Protein thermal shift assay (PTSA); format: binding
T1 construct: made in house
T1 sequence (P29990 1476-1659): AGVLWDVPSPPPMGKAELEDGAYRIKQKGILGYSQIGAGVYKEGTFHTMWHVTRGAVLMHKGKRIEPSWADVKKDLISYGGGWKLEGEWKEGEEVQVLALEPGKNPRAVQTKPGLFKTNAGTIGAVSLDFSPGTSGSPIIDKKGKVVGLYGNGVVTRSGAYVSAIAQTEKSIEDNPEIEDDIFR
Text: Li et al., “Existing Drugs as Broad-Spectrum and Potent Inhibitors for Zika Virus by Targeting NS2B-NS3 Interaction,” Cell Res. 27:1046-1064 (2017), which is hereby incorporated by reference in its entirety.

O=C(Nc1ccc([N+](=O)[O-])cc1Cl)c1cccc([N+](=O)[O-])c1O [JMX0207, N-(2-Chloro-4-nitrophenyl)-2-hydroxy-3-nitrobenzamide]
toxic effect on the 3D organoids [1]: did not have any toxic effect | ZIKV protein expression and RNA synthesis [2]: effectively inhibited ZIKV protein expression and RNA synthesis in HNPC in dose-dependent manner | ZIKV RNA copy number [3]: significantly reduced the ZIKV RNA copy number in a dose-dependent manner | logP [4]: 2.72 | increase in Tm of the viral protein [5]: 0.75 °C
